Results taken from the NIST ThermoML archive (doi:10.1021/je060271a).
“And” between values parts separate entries of the source, which are not always exact repeats. Equal entries are not always repeated. Numbers after ± are expanded uncertainties.

Conditions: Liquid, Vibrating tube method

CCCCCC(=O)OCC(COC(=O)CCCCC)(COC(=O)CCCCC)COC(=O)CCCCC [pentaerythritol tetrahexanoate]
Conditions	mass density
323.17 K, 28058 kPa	990.9 ± 1.2 kg/m3
323.17 K, 28086 kPa	991 ± 1.2 kg/m3
323.17 K, 28114 kPa	991 ± 1.2 kg/m3
323.17 K, 28143 kPa	991 ± 1.2 kg/m3
323.17 K, 28171 kPa	991 ± 1.2 kg/m3
323.17 K, 28198 kPa	991 ± 1.2 kg/m3
323.17 K, 28227 kPa	991 ± 1.2 kg/m3
323.17 K, 28250 kPa	991 ± 1.2 kg/m3
323.17 K, 28280 kPa	991.1 ± 1.2 kg/m3
323.17 K, 32281 kPa	993.5 ± 1.2 kg/m3
323.17 K, 32302 kPa	993.5 ± 1.2 kg/m3
323.17 K, 32323 kPa	993.5 ± 1.2 kg/m3
323.17 K, 32340 kPa	993.5 ± 1.2 kg/m3
323.17 K, 32354 kPa	993.5 ± 1.2 kg/m3
323.18 K, 15635 kPa	983.3 ± 1.2 kg/m3
323.18 K, 15665 kPa	983.3 ± 1.2 kg/m3
323.18 K, 15689 kPa	983.4 ± 1.2 kg/m3
323.18 K, 15719 kPa	983.4 ± 1.2 kg/m3
323.18 K, 15747 kPa	983.4 ± 1.2 kg/m3
323.18 K, 15770 kPa	983.3 ± 1.2 kg/m3
323.18 K, 15797 kPa	983.4 ± 1.2 kg/m3
323.18 K, 15822 kPa	983.4 ± 1.2 kg/m3
323.18 K, 16186 kPa	983.7 ± 1.2 kg/m3
323.18 K, 16212 kPa	983.6 ± 1.2 kg/m3
323.18 K, 16234 kPa	983.7 ± 1.2 kg/m3
323.18 K, 16261 kPa	983.7 ± 1.2 kg/m3
323.18 K, 16283 kPa	983.8 ± 1.2 kg/m3
323.18 K, 25706 kPa	989.7 ± 1.2 kg/m3
343.14 K, 219.9 kPa	957.2 ± 1.2 kg/m3
343.14 K, 220 kPa	957.3 ± 1.2 kg/m3
343.14 K, 220.3 kPa	957.1 ± 1.2 kg/m3 and 957.2 ± 1.2 kg/m3
343.14 K, 223.6 kPa	957.3 ± 1.2 kg/m3
343.14 K, 348.7 kPa	957.3 ± 1.2 kg/m3
343.14 K, 348.9 kPa	957.2 ± 1.2 kg/m3
343.14 K, 349 kPa	957.3 ± 1.2 kg/m3
343.14 K, 349.6 kPa	957.4 ± 1.2 kg/m3
343.14 K, 350.2 kPa	957.3 ± 1.2 kg/m3
343.14 K, 350.4 kPa	957.2 ± 1.2 kg/m3
343.14 K, 350.6 kPa	957.3 ± 1.2 kg/m3
343.14 K, 351.1 kPa	957.3 ± 1.2 kg/m3
343.14 K, 351.3 kPa	957.3 ± 1.2 kg/m3
343.14 K, 387.3 kPa	957.4 ± 1.2 kg/m3
343.14 K, 387.4 kPa	957.2 ± 1.2 kg/m3
343.14 K, 388.3 kPa	957.4 ± 1.2 kg/m3 and 957.5 ± 1.2 kg/m3
343.14 K, 388.5 kPa	957.4 ± 1.2 kg/m3
343.14 K, 388.8 kPa	957.5 ± 1.2 kg/m3
343.14 K, 389.7 kPa	957.3 ± 1.2 kg/m3
343.14 K, 390.2 kPa	957.5 ± 1.2 kg/m3
343.14 K, 754.9 kPa	957.7 ± 1.2 kg/m3
343.14 K, 762.4 kPa	957.6 ± 1.2 kg/m3
343.14 K, 769.9 kPa	957.7 ± 1.2 kg/m3
343.14 K, 778.4 kPa	957.6 ± 1.2 kg/m3
343.14 K, 925.3 kPa	957.8 ± 1.2 kg/m3
343.14 K, 935.1 kPa	957.8 ± 1.2 kg/m3
343.14 K, 947.2 kPa	957.8 ± 1.2 kg/m3
343.14 K, 956.9 kPa	957.8 ± 1.2 kg/m3
343.14 K, 1145.7 kPa	958 ± 1.2 kg/m3
343.14 K, 1156.5 kPa	958 ± 1.2 kg/m3
343.14 K, 1168 kPa	958 ± 1.2 kg/m3
343.14 K, 1181.7 kPa	958 ± 1.2 kg/m3
343.14 K, 1193 kPa	958 ± 1.2 kg/m3
343.14 K, 1206.5 kPa	958 ± 1.2 kg/m3
343.14 K, 1218.3 kPa	958 ± 1.2 kg/m3
343.14 K, 1230.1 kPa	958.1 ± 1.2 kg/m3
343.14 K, 1242.1 kPa	958.1 ± 1.2 kg/m3
343.14 K, 1256.4 kPa	958.1 ± 1.2 kg/m3
343.14 K, 1268.3 kPa	958 ± 1.2 kg/m3
343.14 K, 2111 kPa	958.7 ± 1.2 kg/m3
343.14 K, 2133.5 kPa	958.7 ± 1.2 kg/m3
343.14 K, 2152.4 kPa	958.7 ± 1.2 kg/m3
343.14 K, 2172.4 kPa	958.8 ± 1.2 kg/m3
343.14 K, 2192.8 kPa	958.8 ± 1.2 kg/m3
343.14 K, 2212.6 kPa	958.8 ± 1.2 kg/m3
343.14 K, 2232.6 kPa	958.8 ± 1.2 kg/m3
343.14 K, 2256.5 kPa	958.8 ± 1.2 kg/m3
343.14 K, 2276.6 kPa	958.9 ± 1.2 kg/m3
343.14 K, 2301.1 kPa	958.8 ± 1.2 kg/m3
343.14 K, 2322.3 kPa	958.9 ± 1.2 kg/m3
343.14 K, 2342.9 kPa	958.8 ± 1.2 kg/m3
343.14 K, 2498.5 kPa	959.1 ± 1.2 kg/m3
343.14 K, 2520.2 kPa	958.9 ± 1.2 kg/m3
343.14 K, 2541.5 kPa	959.1 ± 1.2 kg/m3
343.14 K, 2567.9 kPa	959 ± 1.2 kg/m3
343.14 K, 2590.1 kPa	959.1 ± 1.2 kg/m3
343.14 K, 2612.1 kPa	959 ± 1.2 kg/m3
343.14 K, 2638.5 kPa	959.1 ± 1.2 kg/m3
343.14 K, 2660.7 kPa	959.1 ± 1.2 kg/m3
343.14 K, 2683.4 kPa	959.2 ± 1.2 kg/m3
343.14 K, 6196.6 kPa	961.7 ± 1.2 kg/m3
343.14 K, 6236.7 kPa	961.9 ± 1.2 kg/m3
343.14 K, 6269.8 kPa	961.8 ± 1.2 kg/m3
343.14 K, 6638.6 kPa	962.2 ± 1.2 kg/m3
343.14 K, 6667.6 kPa	962.1 ± 1.2 kg/m3
343.14 K, 6695.6 kPa	962.2 ± 1.2 kg/m3
343.14 K, 6726.9 kPa	962.2 ± 1.2 kg/m3
343.14 K, 7550.4 kPa	962.9 ± 1.2 kg/m3
343.14 K, 7576.5 kPa	962.8 ± 1.2 kg/m3
343.14 K, 7602.9 kPa	962.8 ± 1.2 kg/m3
343.14 K, 7633.5 kPa	962.9 ± 1.2 kg/m3
343.14 K, 7659 kPa	962.9 ± 1.2 kg/m3
343.14 K, 7685.3 kPa	963 ± 1.2 kg/m3
343.14 K, 7716.2 kPa	962.9 ± 1.2 kg/m3
343.14 K, 7742 kPa	963 ± 1.2 kg/m3
343.14 K, 8529.9 kPa	963.5 ± 1.2 kg/m3
343.14 K, 8557.5 kPa	963.5 ± 1.2 kg/m3
343.14 K, 8590 kPa	963.6 ± 1.2 kg/m3
343.14 K, 8617.8 kPa	963.7 ± 1.2 kg/m3
343.14 K, 8680.1 kPa	963.6 ± 1.2 kg/m3
343.14 K, 8708.7 kPa	963.8 ± 1.2 kg/m3
343.14 K, 11319 kPa	965.5 ± 1.2 kg/m3
343.14 K, 11356 kPa	965.5 ± 1.2 kg/m3
343.14 K, 11392 kPa	965.6 ± 1.2 kg/m3
343.14 K, 11435 kPa	965.6 ± 1.2 kg/m3
343.14 K, 11471 kPa	965.7 ± 1.2 kg/m3
343.14 K, 11507 kPa	965.8 ± 1.2 kg/m3
343.14 K, 11550 kPa	965.7 ± 1.2 kg/m3
343.14 K, 11586 kPa	965.8 ± 1.2 kg/m3
343.14 K, 11622 kPa	965.8 ± 1.2 kg/m3
343.14 K, 11664 kPa	966 ± 1.2 kg/m3
343.14 K, 12063 kPa	966.2 ± 1.2 kg/m3
343.14 K, 12100 kPa	966.1 ± 1.2 kg/m3
343.14 K, 12131 kPa	966.2 ± 1.2 kg/m3
343.14 K, 12213 kPa	966.1 ± 1.2 kg/m3
343.14 K, 17659 kPa	969.9 ± 1.2 kg/m3
343.14 K, 18549 kPa	970.7 ± 1.2 kg/m3
343.14 K, 18578 kPa	970.7 ± 1.2 kg/m3
343.14 K, 18602 kPa	970.7 ± 1.2 kg/m3
343.14 K, 18626 kPa	970.7 ± 1.2 kg/m3
343.14 K, 18893 kPa	970.8 ± 1.2 kg/m3
343.14 K, 20126 kPa	971.6 ± 1.2 kg/m3 and 971.7 ± 1.2 kg/m3
343.14 K, 20127 kPa	971.7 ± 1.2 kg/m3
343.14 K, 20128 kPa	971.7 ± 1.2 kg/m3
343.14 K, 25755 kPa	975.4 ± 1.2 kg/m3
343.14 K, 25795 kPa	975.4 ± 1.2 kg/m3
343.14 K, 25825 kPa	975.4 ± 1.2 kg/m3
343.14 K, 25856 kPa	975.4 ± 1.2 kg/m3
343.14 K, 25888 kPa	975.5 ± 1.2 kg/m3
343.14 K, 25925 kPa	975.6 ± 1.2 kg/m3
343.14 K, 25957 kPa	975.5 ± 1.2 kg/m3
343.14 K, 25988 kPa	975.6 ± 1.2 kg/m3
343.14 K, 26018 kPa	975.6 ± 1.2 kg/m3
343.14 K, 26052 kPa	975.6 ± 1.2 kg/m3
343.15 K, 203.3 kPa	957.3 ± 1.2 kg/m3
343.15 K, 203.6 kPa	957.2 ± 1.2 kg/m3 and 957.3 ± 1.2 kg/m3 and 957.1 ± 1.2 kg/m3
